pIC50, pKi: −log10 of the molar value.
Experiments:
Beta-secretase 2 = target: T1, Beta-secretase 2 (Homo sapiens, UniProt Q9Y5Z0); assay: (§1) Inhibition Assay: Previously, one of the following compounds discussed below have been studied in memapsin 2 inhibition (Ghosh et al., 2008), which the others are previously unpublished. Given the closely related substrate specificity for memapsin 1 and memapsin 2, the inventors chose to screen these previously identified memapsin 2 inhibitors for lead compounds as memapsin 1 inhibitors. Recombinant memapsin 1 ectodomain was prepared as described by Turner et al. (2002) and assayed using a commercially purchased fluorescent substrate.
T1 sequence (Q9Y5Z0 whole entry): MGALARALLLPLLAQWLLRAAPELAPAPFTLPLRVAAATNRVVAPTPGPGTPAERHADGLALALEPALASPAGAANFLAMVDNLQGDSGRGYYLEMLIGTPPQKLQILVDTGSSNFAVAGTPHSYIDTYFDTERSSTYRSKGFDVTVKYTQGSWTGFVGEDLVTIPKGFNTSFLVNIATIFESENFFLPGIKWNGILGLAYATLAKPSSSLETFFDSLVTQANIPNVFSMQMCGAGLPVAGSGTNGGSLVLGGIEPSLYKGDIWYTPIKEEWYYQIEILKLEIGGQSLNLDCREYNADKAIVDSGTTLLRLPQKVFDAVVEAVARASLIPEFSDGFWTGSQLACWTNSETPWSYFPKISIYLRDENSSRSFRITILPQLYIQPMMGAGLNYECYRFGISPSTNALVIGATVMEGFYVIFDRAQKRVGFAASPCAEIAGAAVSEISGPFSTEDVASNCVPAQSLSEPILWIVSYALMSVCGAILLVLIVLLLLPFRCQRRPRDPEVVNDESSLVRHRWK

Beta-secretase 1 = Beta-secretase 1 (Homo sapiens, UniProt P56817); assay: as §1
Chain of Beta-secretase 1 (P56817 whole entry): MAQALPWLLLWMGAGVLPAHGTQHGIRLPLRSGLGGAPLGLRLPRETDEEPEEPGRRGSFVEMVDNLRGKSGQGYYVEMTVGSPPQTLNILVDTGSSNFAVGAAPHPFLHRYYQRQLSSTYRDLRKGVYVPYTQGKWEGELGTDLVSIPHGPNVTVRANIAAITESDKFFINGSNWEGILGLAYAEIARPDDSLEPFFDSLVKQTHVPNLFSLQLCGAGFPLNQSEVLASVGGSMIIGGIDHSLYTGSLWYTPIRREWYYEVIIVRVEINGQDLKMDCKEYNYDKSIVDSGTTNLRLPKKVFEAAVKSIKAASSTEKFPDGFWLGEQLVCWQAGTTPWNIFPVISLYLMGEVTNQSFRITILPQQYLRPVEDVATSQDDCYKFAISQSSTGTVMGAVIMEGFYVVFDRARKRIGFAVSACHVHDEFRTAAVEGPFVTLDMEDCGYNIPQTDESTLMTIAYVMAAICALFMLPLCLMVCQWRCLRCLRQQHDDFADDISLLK

Row | pKi (Beta-secretase 2) | pKi (Beta-secretase 1) | pIC50 (Beta-secretase 2) | SMILES
1 | 7.20 | 5.24 | – | CC(C)CNC(=O)C(NCC(O)C(Cc1ccccc1)NC(=O)c1cccc(C(=O)N(C)C(C)c2ccccc2)c1)C(C)O (stereo not drawn)
2 | 10.70 | 5.28 | – | CCCC(O)C(NCC(O)C(Cc1ccccc1)NC(=O)c1cccc(C(=O)N(C)C(C)c2ccccc2)c1)C(=O)NCC(C)C (stereo not drawn)
3 | 7.12 | 6.57 | – | CCCC(O)C(NCC(O)C(Cc1ccccc1)NC(=O)c1cccc(C(=O)N2CCCC2OC)c1)C(=O)NCC(C)C (stereo not drawn)
4 | 7.71 | 8.18 | – | CCCC(O)C(NCC(O)C(Cc1ccccc1)NC(=O)c1cc(C)cc(C(=O)N2CCCC2OC)c1)C(=O)NCC(C)C (stereo not drawn)
5 | 5.22 | – | – | CC(C)CN1CCNC(C(O)C(Cc2ccccc2)NC(=O)c2cc(C(=O)NC(C)c3ccccc3)cc(N(C)S(C)(=O)=O)c2)C1 (stereo not drawn)
6 | – | – | 6.15 | COc1ccc(C(C(C)O)C(Cc2ccccc2)NC(=O)c2cc(C(=O)NC(C)c3ccccc3)cc(N(C)S(C)(=O)=O)c2)cc1 (stereo not drawn)
7 | 11.85 | 6.25 | – | CCCC(O)C(NCC(O)C(Cc1ccccc1)NC(=O)c1cc(C)cc(C(=O)N(C)C(C)c2ccccc2)c1)C(=O)NCC(C)C (stereo not drawn)
8 | 7.43 | – | – | CC(C)CNC(=O)C(NCC(O)C(Cc1ccccc1)NC(=O)c1cc(C(=O)NC(C)c2ccccc2)cc(N(C)S(C)(=O)=O)c1)C(C)O (stereo not drawn)
9 | 9.00 | 5.78 | – | Cc1cc(C(=O)NC(Cc2ccccc2)C(O)CNC(C(=O)NCC(C)C)C(C)O)cc(C(=O)N(C)C(C)c2ccccc2)c1 (stereo not drawn)
10 | 7.05 | – | – | CC(C)CNC(=O)C(NCC(O)C(Cc1ccccc1)NC(=O)c1cc(C(=O)NC(C)c2ccc(I)cc2)cc(N(C)S(C)(=O)=O)c1)C(C)O (stereo not drawn)
11 | – | – | 6.46 | COc1cccc(C(NCC(O)C(Cc2ccccc2)NC(=O)c2cc(C(=O)NC(C)c3ccccc3)cc(N(C)S(C)(=O)=O)c2)C(C)O)c1 (stereo not drawn)

The next lines start with the compound.

Row | SMILES | pKi (Beta-secretase 2) | pKi (Beta-secretase 1) | pIC50 (Beta-secretase 2)
12 | CCCC(O)N(NC[C@H](Cc1ccccc1)NC(=O)c1cc2c3c(c1)c(CC)cn3CC1(CC1)S(=O)(=O)N2C)C(=O)NC(C)C (stereo partly drawn) | 7.52 | – | –
13 | CCc1cn2c3c(cc(C(=O)N[C@@H](Cc4ccccc4)C(O)CNCc4cccc(C(F)(F)F)c4)cc13)N(C)S(=O)(=O)C1(CC1)C2 (stereo partly drawn) | 6.28 | – | –
14 | CCc1cn2c3c(cc(C(=O)N[C@@H](Cc4ccccc4)[C@H](O)CNC(COC)c4cccc(C(F)(F)F)c4)cc13)N(C)S(=O)(=O)C1(CC1)C2 (stereo partly drawn) | 6.70 | – | –
15 | NC1=Nc2ccc(Oc3ccccc3)cc2CN1C(CCC(=O)N(CC1CCC(=O)N1)C1CCCCC1)C1CCCCC1 (stereo not drawn) | 7.32 | – | –
16 | CSC[C@H](NC(=O)C1NOC2OCCC21)C(=O)NC(CC(C)C)[C@@H](O)CC(C)C(=O)NC(C(=O)N(C)C)C(C)C (stereo partly drawn) | 7.34 | – | –
17 | COCC(NC(=O)OCC(C1CCCCC1)N1Cc2cc(Oc3ccccc3)ccc2N=C1N)C(=O)N(C)C (stereo not drawn) | 6.46 | – | –
18 | CC(C)CC(NC(=O)[C@H](CS(C)(=O)=O)NC(=O)C1NOC2OCCC21)[C@@H](O)CC(C)C(=O)NC(C(=O)N(C)C)C(C)C (stereo partly drawn) | 7.28 | – | –
19 | Cc1ncsc1CN(C(=O)CCC(C1CCCCC1)N1Cc2cc(Oc3ccccc3)ccc2N=C1N)C1CCCCC1 (stereo not drawn) | 7.28 | – | –
20 | Cc1oncc1CN(C(=O)CCC(C1CCCCC1)N1Cc2cc(Oc3ccccc3)ccc2N=C1N)C1CCCCC1 (stereo not drawn) | 7.15 | – | –
21 | CC(CN1Cc2cc(Oc3ccccc3)ccc2N=C1N)C(=O)NCCC(C)(C)C (stereo not drawn) | – | – | 6.30
22 | CCCC(O)N(NC[C@H](Cc1ccccc1)NC(=O)c1cc2c3c(c1)c(CC)cn3CC1(CC1)S(=O)(=O)N2C)C(=O)NCC(C)C (stereo partly drawn) | 7.96 | – | –
